What was measured:
Experiment in all cases: relative viability (nuclei count vs DMSO), 5 days (fraction); higher = more cells survive
[1] = compound: CCn1c(-c2nonc2N)nc2c(C#CC(C)(C)O)ncc(OC[C@H]3CCCNC3)c21 + COc1cc2c(Oc3ccc(NC(=O)C4(C(=O)Nc5ccc(F)cc5)CC4)cc3F)ccnc2cc1OCCCN1CCOCC1 [Foretinib] (partner 0.25 µM)
How it was run: (§1)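 Five library-drug doses in √10 steps were combined with a fixed anchor-drug dose, or a single drug was given alone, by pin tool to lung cancer cell lines in 1536-well plates the day after seeding. Nuclei were stained and counted after 5 days. Relative viability is the nuclei count in treated wells over that in vehicle wells, taken as the median of duplicate plates.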

[2] = compound: CCn1c(-c2nonc2N)nc2c(C#CC(C)(C)O)ncc(OC[C@H]3CCCNC3)c21 + N=C(N)NC(=N)NCCc1ccccc1 [Phenformin] (partner 250 µM)
How it was run: as §1

BAM7 + Dasatinib = compound: CCOC1=CC=CC=C1N=NC2=C(NN(C2=O)C3=NC(=CS3)C4=CC=CC=C4)C [BAM7] + Cc1nc(Nc2ncc(C(=O)Nc3c(C)cccc3Cl)s2)cc(N2CCN(CCO)CC2)n1 [Dasatinib] (partner 0.075 µM)
How it was run: as §1

BAM7 + Alpelisib = compound: CCOC1=CC=CC=C1N=NC2=C(NN(C2=O)C3=NC(=CS3)C4=CC=CC=C4)C [BAM7] + Cc1nc(NC(=O)N2CCC[C@H]2C(N)=O)sc1-c1ccnc(C(C)(C)C(F)(F)F)c1 [Alpelisib] (partner 2 µM)
How it was run: as §1

Cell Line | relative viability ([1]; first compound 0.01 µM) | relative viability ([1]; first compound 0.03162 µM) | relative viability ([1]; first compound 0.1 µM) | relative viability ([1]; first compound 0.3162 µM) | relative viability ([1]; first compound 1 µM) | relative viability ([2]; first compound 0.01 µM) | relative viability ([2]; first compound 0.03162 µM) | relative viability ([2]; first compound 0.1 µM) | relative viability ([2]; first compound 0.3162 µM) | relative viability ([2]; first compound 1 µM) | relative viability (BAM7 + Dasatinib; first compound 0.5 µM) | relative viability (BAM7 + Dasatinib; first compound 5 µM) | relative viability (BAM7 + Dasatinib; first compound 15.81 µM) | relative viability (BAM7 + Dasatinib; first compound 50 µM) | relative viability (BAM7 + Alpelisib; first compound 0.5 µM) | relative viability (BAM7 + Alpelisib; first compound 5 µM) | relative viability (BAM7 + Alpelisib; first compound 15.81 µM) | relative viability (BAM7 + Alpelisib; first compound 50 µM)
NCI-H441 | 1.08 | 0.967 | 0.836 | 1.16 | 0.875 | 0.824 | 0.888 | 0.833 | 0.801 | 0.715 | 0.607 | 0.583 | 0.71 | 0.724 | 0.809 | 0.932 | 0.793 | 0.682
NCI-H460 | 0.949 | 1.11 | 0.979 | 0.978 | 1.11 | 0.518 | 0.561 | 0.523 | 0.495 | 0.541 | 0.51 | 0.622 | 0.443 | 0.691 | 0.514 | 0.468 | 0.473 | 0.403
NCI-H520 | 0.743 | 0.902 | 0.704 | 0.524 | 0.392 | 0.424 | 0.561 | 0.303 | 0.236 | 0.233 | 0.184 | 0.171 | 0.207 | 0.245 | 1.03 | 1.01 | 0.947 | 0.865
NCI-H596 | 0.895 | 1 | 0.744 | 0.84 | 0.639 | 0.74 | 0.7 | 0.727 | 0.744 | 0.761 | 0.621 | 0.644 | 0.578 | 0.632 | 0.461 | 0.463 | 0.425 | 0.492
NCI-H647 | 1.26 | 1.1 | 1.14 | 1.16 | 1.22 | 0.595 | 0.573 | 0.554 | 0.399 | 0.345 | 0.175 | 0.193 | 0.203 | 0.248 | 1.27 | 1.32 | 1.05 | 1.17
NCI-H650 | 1.01 | 0.979 | 0.993 | 1 | 1.13 | 0.435 | 0.414 | 0.429 | 0.415 | 0.444 | 0.422 | 0.49 | 0.477 | 0.517 | 1.03 | 1.33 | 1.04 | 1.08
NCI-H661 | 1.01 | 1.06 | 1.06 | 0.935 | 1.06 | 0.277 | 0.259 | 0.265 | 0.145 | 0.239 | 0.991 | 0.965 | 0.759 | 0.962 | 0.736 | 0.7 | 0.699 | 0.699
NCI-H727 | 0.833 | 1.22 | 0.693 | 0.877 | 1.08 | 0.468 | 0.461 | 0.618 | 0.515 | 0.502 | 0.351 | – | 0.469 | 0.312 | 0.599 | 0.576 | 0.57 | 0.663
NCI-H838 | 0.969 | 1.08 | 0.988 | 1.02 | 1.07 | 0.564 | 0.557 | 0.685 | 0.521 | 0.583 | 0.36 | 0.297 | 0.295 | 0.335 | 1.06 | 1.05 | 0.989 | 1
NCI-H1355 | 0.954 | 1.05 | 0.937 | 0.906 | 0.81 | 0.488 | 0.458 | 0.417 | 0.434 | 0.483 | 0.572 | 0.61 | 0.46 | 0.549 | 0.786 | 0.832 | 0.725 | 0.772
NCI-H1395 | 0.945 | 0.922 | 0.945 | 0.871 | 0.818 | 0.417 | 0.416 | 0.418 | 0.376 | 0.388 | 0.41 | 0.445 | 0.357 | 0.465 | 1.23 | 1.04 | 1.04 | 1.24
NCI-H1437 | 1.18 | 1.27 | 1.28 | 1.27 | 1.36 | 0.331 | 0.34 | 0.293 | 0.239 | 0.306 | 0.561 | 0.574 | 0.445 | 0.833 | 1.07 | 1 | 0.911 | 0.909
NCI-H1563 | 0.989 | 0.884 | 0.886 | 0.892 | 0.881 | 0.623 | 0.618 | 0.701 | 0.63 | 0.649 | 0.438 | 0.497 | 0.484 | 0.41 | 0.991 | 0.864 | 0.864 | 0.929
NCI-H1651 | 0.865 | 0.807 | 0.743 | 0.521 | 0.779 | 0.353 | 0.387 | 0.382 | 0.28 | 0.337 | 0.297 | 0.372 | 0.477 | 0.456 | 1.01 | 0.861 | 0.967 | 0.883
NCI-H1666 | 0.946 | 0.957 | 0.982 | 1.02 | 1.02 | 0.614 | 0.539 | 0.539 | 0.987 | 0.534 | 0.847 | 0.832 | 0.755 | 0.876 | 1.04 | 0.892 | 0.9 | 0.984
NCI-H1734 | 0.765 | 0.841 | 0.801 | 0.748 | 0.799 | 0.365 | 0.425 | 0.335 | 0.323 | 0.267 | 0.503 | 0.59 | 0.491 | 0.53 | 0.74 | 0.804 | 0.638 | 0.676
NCI-H1755 | 0.993 | 0.933 | 0.899 | 0.841 | 0.95 | 0.604 | 0.606 | 0.614 | 0.613 | 0.605 | 0.432 | 0.466 | 0.419 | 0.458 | 0.994 | 0.982 | 0.902 | 0.948
